Assay results reported in ChEMBL document CHEMBL4130462, “Natural isoflavone biochanin A as a template for the design of new and potent 3-phenylquinolone efflux inhibitors against Mycobacterium avium” (Eur J Med Chem, 2017).
Values after ≈ are worked out from the molar mass of the structure shown.

Assays:
Mycobacterium avium [1] = settings: isolate MAV4
Mycobacterium avium [2] = settings: 104 mc'2 3
Mycobacterium avium [3] = settings: 104 mc'2 4
Mycobacterium avium [4] = settings: isolate MAV3
[5] = test system: Mycobacterium avium subsp. avium ATCC 25291
Description: Inhibition of multidrug resistance efflux pump in Mycobacterium avium ATCC 25291 assessed as potentiation of clarithromycin -induced antibacterial activity by measuring clarithromycin MIC at 1/4 MIC incubated for 3 days by MTT assay

Mycobacterium avium [6] = settings: isolate MAV4; remark: listed apart in the source
Mycobacterium avium [7] = settings: 104
Description: Inhibition of multidrug resistance efflux pump in Mycobacterium avium 104 assessed as potentiation of clarithromycin -induced antibacterial activity by measuring clarithromycin MIC at 1/2 MIC incubated for 3 days by MTT assay

Mycobacterium avium [8] = settings: isolate MAV2
Mycobacterium avium [9] = settings: 104 mc'2 4; remark: listed apart in the source
Mycobacterium avium [10] = settings: isolate MAV1
Mycobacterium avium [11] = settings: isolate MAV3; remark: listed apart in the source
Mycobacterium avium [12] = settings: isolate MAV3; remark: listed apart in the source
Mycobacterium avium [13] = settings: 104; remark: listed apart in the source
Mycobacterium avium [14] = settings: isolate MAV2; remark: listed apart in the source
Mycobacterium avium [15] = settings: 104 mc'2 4; remark: listed apart in the source
Mycobacterium avium [16] = settings: isolate MAV1; remark: listed apart in the source
Description: Inhibition of multidrug resistance efflux pump in Mycobacterium avium isolate MAV1 assessed as potentiation of ciprofloxacin-induced antibacterial activity by measuring ciprofloxacin MIC at 1/2 MIC incubated for 3 days by MTT assay (Rvb = 2 ug/ml)

Mycobacterium avium [17] = settings: isolate MAV3; remark: listed apart in the source
Mycobacterium avium [18] = settings: isolate MAV1; remark: listed apart in the source
Mycobacterium avium [19] = assay: Antimycobacterial activity against Mycobacterium avium isolate MAV2 assessed as reduction in bacterial viability incubated for 3 days by MTT assay; format: organism-based; settings: 72 h
Mycobacterium avium [20] = settings: isolate MAV2; remark: listed apart in the source
Description: Inhibition of multidrug resistance efflux pump in Mycobacterium avium isolate MAV2 assessed as potentiation of clarithromycin -induced antibacterial activity by measuring clarithromycin MIC at 1/4 MIC incubated for 3 days by MTT assay (Rvb = >1024 ug/ml)

Mycobacterium avium [21] = assay: Antimycobacterial activity against Mycobacterium avium isolate MAV3 assessed as reduction in bacterial viability incubated for 3 days by MTT assay; format: organism-based; settings: 72 h
Mycobacterium avium [22] = settings: isolate MAV3; remark: listed apart in the source
Mycobacterium avium [23] = settings: 104 mc'2 4; remark: listed apart in the source
Mycobacterium avium [24] = settings: isolate MAV3; remark: listed apart in the source
[25] = test system: Mycobacterium avium subsp. avium ATCC 25291; remark: listed apart in the source
Description: Inhibition of multidrug resistance efflux pump in Mycobacterium avium ATCC 25291 assessed as potentiation of clarithromycin -induced antibacterial activity by measuring clarithromycin MIC at 1/2 MIC incubated for 3 days by MTT assay

Mycobacterium avium [26] = settings: isolate MAV1; remark: listed apart in the source
Description: Inhibition of multidrug resistance efflux pump in Mycobacterium avium isolate MAV1 assessed as potentiation of ofloxacin-induced antibacterial activity by measuring ofloxacin MIC at 1/2 MIC incubated for 3 days by MTT assay (Rvb = 4 ug/ml)

Mycobacterium avium [27] = settings: 104 mc'2 3; remark: listed apart in the source
Mycobacterium avium [28] = settings: isolate MAV1; remark: listed apart in the source
Mycobacterium avium [29] = settings: 104; remark: listed apart in the source
Mycobacterium avium [30] = settings: isolate MAV3; remark: listed apart in the source
Mycobacterium avium [31] = settings: 104 mc'2 3; remark: listed apart in the source
Mycobacterium avium [32] = settings: isolate MAV1; remark: listed apart in the source
[33] = test system: Mycobacterium avium subsp. avium ATCC 25291; remark: listed apart in the source
Mycobacterium avium [34] = settings: 104; remark: listed apart in the source
Mycobacterium avium [35] = settings: 104; remark: listed apart in the source
Mycobacterium avium [36] = settings: 104; remark: listed apart in the source
Mycobacterium avium [37] = settings: isolate MAV3; remark: listed apart in the source
[38] = test system: Mycobacterium avium subsp. avium ATCC 25291; remark: listed apart in the source
Mycobacterium avium [39] = settings: isolate MAV2; remark: listed apart in the source
Mycobacterium avium [40] = settings: 104 mc'2 3; remark: listed apart in the source
Mycobacterium avium [41] = settings: 104 mc'2 4; remark: listed apart in the source
Mycobacterium avium [42] = settings: isolate MAV4; remark: listed apart in the source
Mycobacterium avium [43] = settings: isolate MAV4; remark: listed apart in the source
Mycobacterium avium [44] = settings: isolate MAV2; remark: listed apart in the source
Description: Inhibition of multidrug resistance efflux pump in Mycobacterium avium isolate MAV2 assessed as potentiation of ofloxacin-induced antibacterial activity by measuring ofloxacin MIC at 1/2 MIC incubated for 3 days by MTT assay

Mycobacterium avium [45] = settings: 104; remark: listed apart in the source
Mycobacterium avium [46] = settings: isolate MAV4; remark: listed apart in the source
Mycobacterium avium [47] = settings: isolate MAV3; remark: listed apart in the source
Mycobacterium avium [48] = settings: 104; remark: listed apart in the source
[49] = test system: Mycobacterium avium subsp. avium ATCC 25291; remark: listed apart in the source
Mycobacterium avium [50] = settings: isolate MAV4; remark: listed apart in the source
Description: Inhibition of multidrug resistance efflux pump in Mycobacterium avium isolate MAV4 assessed as potentiation of ethidium bromide-induced antibacterial activity by measuring ethidium bromide MIC at 1/4 MIC incubated for 3 days by MTT assay

Mycobacterium avium [51] = settings: 104 mc'2 4; remark: listed apart in the source
Mycobacterium avium [52] = settings: 104 mc'2 4; remark: listed apart in the source
Mycobacterium avium [53] = settings: isolate MAV1; remark: listed apart in the source
Mycobacterium avium [54] = settings: isolate MAV4; remark: listed apart in the source
Description: Inhibition of multidrug resistance efflux pump in Mycobacterium avium isolate MAV4 assessed as potentiation of clarithromycin -induced antibacterial activity by measuring clarithromycin MIC at 1/4 MIC incubated for 3 days by MTT assay

Mycobacterium avium [55] = settings: 104 mc'2 4; remark: listed apart in the source
[56] = test system: Mycobacterium avium subsp. avium ATCC 25291; remark: listed apart in the source
Description: Inhibition of multidrug resistance efflux pump in Mycobacterium avium ATCC 25291 assessed as potentiation of ethidium bromide-induced antibacterial activity by measuring ethidium bromide MIC at 1/2 MIC incubated for 3 days by MTT assay (Rvb = 50 ug/ml)

Mycobacterium avium [57] = settings: 104; remark: listed apart in the source
Mycobacterium avium [58] = settings: 104 mc'2 4; remark: listed apart in the source
Mycobacterium avium [59] = settings: isolate MAV2; remark: listed apart in the source
Mycobacterium avium [60] = settings: isolate MAV1; remark: listed apart in the source
Mycobacterium avium [61] = settings: 104; remark: listed apart in the source
Description: Inhibition of multidrug resistance efflux pump in Mycobacterium avium 104 assessed as potentiation of clarithromycin -induced antibacterial activity by measuring clarithromycin MIC at 1/4 MIC incubated for 3 days by MTT assay

[62] = test system: Mycobacterium avium subsp. avium ATCC 25291; remark: listed apart in the source
Mycobacterium avium [63] = settings: isolate MAV2; remark: listed apart in the source
[64] = Cytotoxicity in human monocyte-derived macrophages assessed as reduction in cell viability incubated for 3 days by alamar blue dye based assay; parameters: species or system Macrophage cell line
Mycobacterium avium [65] = settings: isolate MAV4; remark: listed apart in the source
Mycobacterium avium [66] = settings: 104 mc'2 3; remark: listed apart in the source
[67] = Safety index, ratio of CC50 for test compound to CC50 for chlorpromazine for cytotoxicity in human monocyte-derived macrophages; format: cell-based, Macrophage cell line
[68] = test system: Mycobacterium avium subsp. avium ATCC 25291; remark: listed apart in the source

What does the source list for CCCOc1ccc(-c2cn(CCN3CCCCC3)c3ccccc3c2=O)cc1?
MIC (Mycobacterium avium [1]): 2 µg/mL (≈ 5.12 µM); MIC (Mycobacterium avium [2]): < 4 µg/mL; MIC (Mycobacterium avium [3]): < 4 µg/mL; MIC (Mycobacterium avium [4]): 8 µg/mL (≈ 20.5 µM); MIC [5]: 4 µg/mL (≈ 10.2 µM); MIC (Mycobacterium avium [6]): < 4 µg/mL; MIC (Mycobacterium avium [7]): < 0.125 µg/mL; MIC (Mycobacterium avium [8]): 6.25 µg/mL (≈ 16 µM); MIC (Mycobacterium avium [9]): < 4 µg/mL; MIC (Mycobacterium avium [10]): 1.56 µg/mL (≈ 3.99 µM); MIC (Mycobacterium avium [11]): 3.12 µg/mL (≈ 8 µM); MIC (Mycobacterium avium [12]): 16 µg/mL (≈ 41 µM); MIC (Mycobacterium avium [13]): < 0.125 µg/mL; MIC (Mycobacterium avium [14]): 256 µg/mL (≈ 656 µM); MIC (Mycobacterium avium [15]): 512 µg/mL (≈ 1310 µM); MIC (Mycobacterium avium [16]): < 0.031 µg/mL; MIC (Mycobacterium avium [17]): 0.5 µg/mL (≈ 1.28 µM); MIC (Mycobacterium avium [18]): 0.25 µg/mL (≈ 0.64 µM); MIC (Mycobacterium avium [19]): 256 µg/mL (≈ 656 µM); MIC (Mycobacterium avium [20]): 512 µg/mL (≈ 1310 µM); MIC (Mycobacterium avium [21]): 128 µg/mL (≈ 328 µM); MIC (Mycobacterium avium [22]): 32 µg/mL (≈ 81.9 µM); MIC (Mycobacterium avium [23]): < 0.125 µg/mL; MIC (Mycobacterium avium [24]): 2 µg/mL (≈ 5.12 µM); MIC [25]: < 0.0625 µg/mL; MIC (Mycobacterium avium [26]): < 0.0625 µg/mL; MIC (Mycobacterium avium [27]): 8 µg/mL (≈ 20.5 µM); MIC (Mycobacterium avium [28]): < 0.195 µg/mL; MIC (Mycobacterium avium [29]): < 0.195 µg/mL; MIC (Mycobacterium avium [30]): 2 µg/mL (≈ 5.12 µM); MIC (Mycobacterium avium [31]): 3.12 µg/mL (≈ 8 µM); MIC (Mycobacterium avium [32]): < 0.125 µg/mL; MIC [33]: < 1 µg/mL; MIC (Mycobacterium avium [34]): < 0.125 µg/mL; MIC (Mycobacterium avium [35]): < 0.125 µg/mL; MIC (Mycobacterium avium [36]): < 0.125 µg/mL; MIC (Mycobacterium avium [37]): 4 µg/mL (≈ 10.2 µM); MIC [38]: 32 µg/mL (≈ 81.9 µM); MIC (Mycobacterium avium [39]): 1 µg/mL (≈ 2.56 µM); MIC (Mycobacterium avium [40]): < 0.125 µg/mL; MIC (Mycobacterium avium [41]): 2 µg/mL (≈ 5.12 µM); MIC (Mycobacterium avium [42]): 4 µg/mL (≈ 10.2 µM); MIC (Mycobacterium avium [43]): 8 µg/mL (≈ 20.5 µM); MIC (Mycobacterium avium [44]): 2 µg/mL (≈ 5.12 µM); MIC (Mycobacterium avium [45]): < 0.125 µg/mL; MIC (Mycobacterium avium [46]): < 0.25 µg/mL; MIC (Mycobacterium avium [47]): < 4 µg/mL; MIC (Mycobacterium avium [48]): < 0.195 µg/mL; MIC [49]: < 0.25 µg/mL; MIC (Mycobacterium avium [50]): 3.12 µg/mL (≈ 8 µM); MIC (Mycobacterium avium [51]): < 4 µg/mL; MIC (Mycobacterium avium [52]): < 0.125 µg/mL; MIC (Mycobacterium avium [53]): < 4 µg/mL; MIC (Mycobacterium avium [54]): 1 µg/mL (≈ 2.56 µM); MIC (Mycobacterium avium [55]): 128 µg/mL (≈ 328 µM); MIC [56]: < 0.39 µg/mL; MIC (Mycobacterium avium [57]): < 0.125 µg/mL; MIC (Mycobacterium avium [58]): 128 µg/mL (≈ 328 µM); MIC (Mycobacterium avium [59]): 3.12 µg/mL (≈ 8 µM); MIC (Mycobacterium avium [60]): < 4 µg/mL; MIC (Mycobacterium avium [61]): < 0.125 µg/mL; MIC [62]: < 0.5 µg/mL; MIC (Mycobacterium avium [63]): 512 µg/mL (≈ 1310 µM); CC50 at 72 h ([64]; human monocyte-derived macrophages): 82.2 µM; MTC ([64]; macrophage cell line, 72 h): 40 µM; MIC (Mycobacterium avium [65]): < 4 µg/mL; MIC (Mycobacterium avium [66]): 2 µg/mL (≈ 5.12 µM); selectivity ratio [67]: 2 to 4; MIC [68]: 8 µg/mL (≈ 20.5 µM)
